Literature values in patent US4380638A, “Chemical compounds” (Bristol-Myers Company, priority 1981, dated 1983).

Legend:
[1] = test system: H2 -receptor
[2] = agranulocytosis
[3] = test system: peptic ulcer disease; settings: Gray et al., Lancet, 1, 8001 (1977)
[4] = test system: H2 -receptor; settings: man

SMILES | H2-antagonist potency/effectiveness relative to another drug [1] | toxicity [2] | clinical effectiveness in peptic ulcer disease [3] | oral activity [4] | oral absorption
CNC(=NC#N)NCCSCc1[nH]cnc1C [Cimetidine] | as effective an H2 -antagonist as metiamide | without producing agranulocytosis | effective therapeutic agent in the treatment of peptic ulcer disease |  | 
CNC(=S)NCCSCc1[nH]cnc1C [Metiamide] | more potent than burimamide | agranulocytosis |  | orally active in man | 
CNC(=S)NCCCCc1cnc[nH]1 [Burimamide] |  |  |  |  | poor
